Assay results from patent publication US20030225152A1, “3-(Arylamino)methylene-1, 3-dihydro-2h-indol-2-ones as kinase inhibitors” (priority 2001, published 2003).

How the values were obtained:
[1] = molecular target: T1, cytoplasmic domain of the human VEGF receptor (VEGFR-2) (Homo sapiens, UniProt P35968); test: KDR Assay; format: biochemical; conditions: His-VEGFR-2; 3.6 μM ATP
T1 construct: The cytoplasmic domain of the human VEGF receptor (VEGFR-2) was expressed as a Histidine-tagged fusion protein; Histidine tag
T1 sequence (P35968 786-1356): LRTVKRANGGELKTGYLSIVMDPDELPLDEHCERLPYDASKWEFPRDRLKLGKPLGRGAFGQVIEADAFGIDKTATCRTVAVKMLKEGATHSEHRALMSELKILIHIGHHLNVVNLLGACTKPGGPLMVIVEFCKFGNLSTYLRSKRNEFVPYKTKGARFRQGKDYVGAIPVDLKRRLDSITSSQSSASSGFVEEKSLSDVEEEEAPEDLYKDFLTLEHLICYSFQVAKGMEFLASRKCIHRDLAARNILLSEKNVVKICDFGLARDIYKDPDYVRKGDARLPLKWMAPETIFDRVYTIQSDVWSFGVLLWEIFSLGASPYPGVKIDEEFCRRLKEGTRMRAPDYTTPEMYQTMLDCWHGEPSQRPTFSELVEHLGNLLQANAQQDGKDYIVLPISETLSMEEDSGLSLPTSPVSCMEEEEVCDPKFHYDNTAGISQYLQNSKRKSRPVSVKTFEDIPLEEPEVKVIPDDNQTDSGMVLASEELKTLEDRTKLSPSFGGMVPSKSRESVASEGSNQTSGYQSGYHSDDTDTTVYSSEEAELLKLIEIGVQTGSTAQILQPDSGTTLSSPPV
Procedure, shortened: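 His-tagged human VEGFR-2 cytoplasmic domain from baculovirus-infected insect cells, acting on poly-Glu-Tyr (4:1)-coated plates with 3.6 μM ATP in Hepes pH 7.4 with MgCl2/MnCl2 and 5% final DMSO, 10 min at 25 °C. Phosphotyrosine detected by peroxidase-conjugated antibody ELISA at 492 nm; IC50 from blank-subtracted OD versus concentration.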

[2] = tested on: VEGF induced increases in intracellular calcium levels in HUVEC (human umbilical vein endothelial cells); test: VEGF Stimulated Ca++ Signal in vitro (FLIPR); format: cell-based; conditions: VEGF 5 ng/mL; for IC50: 0.01 to 10.0 μM
Procedure, shortened: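 HUVEC loaded with Fluo-4 (45 min, 37° C.), washed, then pre-incubated 30 min with compound (10 μM single dose or 0.01–10.0 μM; 0.1% DMSO) before 5 ng/mL VEGF. Fluorescence at 516 nm read by FLIPR; IC50 from % inhibition of max-min VEGF response.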

[3] = tested on: VEGF-induced EBD extravasation; test: VEGF-induced Dermal Extravasation in Guinea Pig (Miles Assay); format: in vivo
Experimental: VEGF-induced Dermal Extravasation in Guinea Pig (Miles Assay). Male Hartley guinea pigs (300-600 g) were anesthetized with isofluorane, sheared, and given a single dose of drug or the respective vehicle. The guinea pigs were dosed orally unless indicated otherwise in Table 3. Ten minutes prior to the end of drug treatment, guinea pigs were anesthetized with isofluorane, and 0.5% Evans blue dye (EBD) in PBS (13-15 mg/kg dose of EBD) was injected intravenously. After 5 minutes, triplicate intradermal injections of 100 ng rhVEGF165 in 100 μl PBS and of 100 μl PBS alone were administered on the flank. After 20 minutes, each animal was euthanized with Pentosol, and the skin containing the intradermal injection sites was removed for image analysis.
Using an analog video camera coupled to a PC, an image of each trans-illuminated skin sample was captured, and the integrated optical density of each injection site was measured using ImagePro 4. For each skin sample, the difference between the mean optical density of the VEGF sites and mean optical density of the PBS sites is the measure of VEGF-induced EBD extravasation in that animal. These measured values were averaged per study group to determine the mean VEGF-induced EBD extravasation for each experimental condition, and the group means were then compared to assess inhibition of VEGF-induced EBD extravasation in the drug-treated groups relative to the vehicle-treated controls.
To determine the dose required for 50% inhibition (ID50), the percent inhibition data was plotted as a function of oral dose, using the ‘best-fit’ analysis within MicroSoft Excel software. The ID50 value was verified visually by using the plotted data (horizontal line from 50% y value, at intersection with best-fit line drop vertical line to x axis (dose)).

Row | SMILES | IC50 [1] | inhibition at 10 µM ([2]; Homo sapiens) | Miles Assay % inhibition ([3]; 75 mg/kg, PEG400, oral) | Miles Assay % inhibition ([3]; 75 mg/kg, corn oil, oral) | Miles Assay % inhibition ([3]; 40 mg/kg, corn oil, oral) | IC50 [2] | IC50 ([2]; Homo sapiens)
1 | CN1CCN(c2ccc(NC=C3C(=O)Nc4ccccc43)cc2)CC1 [Example 157, 3-{[4-(4-Methyl-piperazin-1-yl)-phenylamino]-methylenel}-1,3-dihydro-indol-2-one] | 250 nM | 97.9% | 38% | – | – | – | –
2 | CCN(CC)CCCOc1ccc(NC=C2C(=O)Nc3cc(F)ccc32)cc1F [Example 250, 3-{[4-(3-Diethylamino-propoxy)-3-fluoro-phenylamino]-methylene}-6-fluoro-1,3-dihydro-indol-2-one] | 150 nM | – | – | 62% | – | – | –
3 | CCN(CC)CCOc1ccc(NC=C2C(=O)Nc3cc(F)ccc32)cc1 [Example 266, 3-{[4-(2-Diethylamino-ethoxy)-phenylamino]-methylene}-6-fluoro-1,3-dihydro-indol-2-one] | 170 nM | – | – | – | 82% | – | –
4 | O=C1Nc2ccccc2C1=CNc1ccc(OCCCN2CCOCC2)cc1 [Example 215, 3-{[4-(3-Morpholin-4-yl-propoxy)-phenylamino]-methylene}-1,3-dihydro-indol-2-one] | 340 nM | 96.7% | 53% | – | – | 670 nM | ≤ 1000 nM
5 | O=C1Nc2cc(F)ccc2C1=CNc1ccc(OCCCCN2CCCCC2)cc1 [Example 247, 6-Fluoro-3-{[4-(4-piperidin-1-yl-butoxy)-phenylamino]-methylene}-1,3-dihydro-indol-2-one] | 200 nM | – | – | 45% | – | – | –
6 | O=C1Nc2cc(F)ccc2C1=CNc1ccc(OCCN2CCCC2)cc1 [Example 271, 6-Fluoro-3-{[4-(2-pyrrolidin-1-yl-ethoxy)-phenylamino]-methylene}-1,3-dihydro-indol-2-one] | 130 nM | – | – | – | 98% | – | –
7 | CCN(CC)CCCOc1ccc(NC=C2C(=O)Nc3cccc(C)c32)cc1F [Example 249, 3-{[4-(3-Diethylamino-propoxy)-3-fluoro-phenylamino]-methylene}-4-methyl-1,3-dihydro-indol-2-one] | 70 nM | – | – | 29% | – | – | –
8 | O=C1Nc2ccccc2C1=CNc1ccc(OCCCN2CCCC2)cc1 [Example 216, 3-{[4-(3-Pyrrolidin-1-yl-propoxy)-phenylamino]-methylene}-1,3-dihydro-indol-2-one] | 340 nM | 95.3% | 91% | – | – | 570 nM | ≤ 1000 nM
9 | O=C1Nc2ccc(F)cc2C1=CNc1ccc(N2CCOCC2)cc1 [Example 167, 5-Fluoro-3-[(4-morpholin-4-yl-phenylamino)-methylene]-1,3-dihydro-indol-2-one] | 190 nM | 95.7% | 31% | – | – | – | –
10 | Cc1cccc2c1C(=CNc1ccc(N)cc1)C(=O)N2 [Example 181, 3-[(4-Amino-phenylamino)-methylene]-4-methyl-1,3-dihydro-indol-2-one] | 350 nM | 97.7% | 38% | – | – | – | –
11 | CC1CN(c2ccc(NC=C3C(=O)Nc4cc(F)ccc43)cc2)CC(C)O1 (stereo not drawn) [Example 229, 3-{[4-(2,6-Dimethyl-morpholin-4-yl)-phenylamino]-methylene}-6-fluoro-1,3-dihydro-indol-2-one] | 110 nM | 97.2% | 97% | – | – | – | –
12 | CCN(CC)CCCCOc1ccc(NC=C2C(=O)Nc3ccccc32)cc1 [Example 207, 3-{[4-(4-Diethylamino-butoxy)-phenylamino]-methylene}-1,3-dihydro-indol-2-one] | 240 nM | 98.6% | – | 80% | – | 510 nM | ≤ 1000 nM
13 | O=C1Nc2ccccc2C1=CNc1ccc(OCCCCN2CCCC2)cc1 [Example 179, 3-{[4-(4-Pyrrolidin-1-yl-butoxy)-phenylamino]-methylene}-1,3-dihydro-indol-2-one] | 310 nM | 97.3% | 65% | – | – | 640 nM | ≤ 1000 nM
14 | Cc1cccc2c1C(=CNc1ccc(OCCCN3CCCCC3)cc1)C(=O)N2 [Example 238, 4-Methyl-3-{[4-(3-piperidin-1-yl-propoxy)-phenylamino]-methylene}-1,3-dihydro-indol-2-one] | 60 nM | 98.4% | – | 60% | – | 780 nM | ≤ 1000 nM
15 | CC1CN(c2ccc(NC=C3C(=O)Nc4ccc(F)cc43)cc2)CC(C)O1 (stereo not drawn) [Example 219, 3-{[4-(2,6-Dimethyl-morpholin-4-yl)-phenylamino]-methylene}-5-fluoro-1,3-dihydro-indol-2-one] | 220 nM | 97.4% | 28% | – | – | 620 nM | ≤ 1000 nM
16 | CN(C)c1ccc(NC=C2C(=O)Nc3ccccc32)cc1 [Example 156, 3-[(4-Dimethylamino-phenylamino)-methylene]-1,3-dihydro-indol-2-one] | 510 nM | 95.4% | 100% | – | – | 830 nM | ≤ 1000 nM
17 | O=C1Nc2ccc(Cl)cc2C1=CNc1ccc(OCCN2CCCC2)cc1 [Example 275, 5-Chloro-3-{[4-(2-pyrrolidin-1-yl-ethoxy)-phenylamino]-methylene}-1,3-dihydro-indol-2-one] | 130 nM | – | – | – | – | 620 nM | ≤ 1000 nM
18 | O=C(O)CCc1ccc(NC=C2C(=O)Nc3ccc(Cl)cc32)cc1 [Example 146, 3-{4-[(5-Chloro-2-oxo-1,2-dihydro-indol-3-ylidenemethyl)-amino]-phenyl}-propionic acid] | 510 nM | 98.4% | – | – | – | – | 2070 nM
19 | CCN(CC)Cc1cc(NC=C2C(=O)Nc3ccccc32)ccc1O [Example 160, 3-[(3-Diethylaminomethyl-4-hydroxy-phenylamino)-methylene]-1,3-dihydro-indol-2-one] | 700 nM | 91.4% | – | – | – | – | 1290 nM
20 | COc1cccc(-c2ccc3c(c2)NC(=O)C3=CNc2ccc(N3CCN(C)CC3)cc2)c1 [Example 268, 6-(3-Methoxy-phenyl)-3-{[4-(4-methyl-piperazin-1-yl)-phenylamino]-methylene}-1,3-dihydro-indol-2-one] | 80 nM | – | – | – | – | – | ≥ 10000 nM
21 | CN1CCCC(COc2ccc(NC=C3C(=O)Nc4ccc(Cl)cc43)cc2)C1 (stereo not drawn) [Example 283, 5-Chloro-3-{[4-(1-methyl-piperidin-3-ylmethoxy)-phenylamino]-methylene}-1,3-dihydro-indol-2-one] | 150 nM | – | – | – | – | 940 nM | ≤ 1000 nM
22 | COc1ccc(NC=C2C(=O)Nc3ccccc32)cc1F [Example 21, 3-[(3-Fluoro-4-methoxy-phenylamino)-methylene]-1,3-dihydro-indol-2-one] | 720 nM | 88% | – | – | – | – | 1500 nM
23 | O=C1Nc2ccc(Cl)cc2C1=CNc1ccc(N2CCOCC2)cc1 [Example 106, 5-Chloro-3-[(4-morpholinophenylamino)-methylene]-1,3-dihydro-indol-2-one] | 230 nM | 96.6% | – | – | – | 600 nM | ≤ 1000 nM
24 | O=C1Nc2ccc(F)cc2C1=CNc1ccc2ncsc2c1 [Example 173, 3-(Benzothiazol-6-ylaminomethylene)-5-fluoro-1,3-dihydro-indol-2-one] | 520 nM | 94.5% | – | – | – | – | 1480 nM
25 | Cc1cccc2c1C(=CNc1ccc(NC(=O)OC(C)(C)C)cc1)C(=O)N2 [Example 187, {4-[(4-Methyl-2-oxo-1,2-dihydro-indol-3-ylidenemethyl)-amino]-phenyl}-carbamic acid tert-butyl ester] | 270 nM | 96.8% | – | – | – | – | 1670 nM
26 | N#Cc1ccc(NC=C2C(=O)Nc3ccccc32)cc1 [Example 29, 3-[(4-Cyanophenylamino)-methylene]-1,3-dihydro-indol-2-one] | 680 nM | 81.5% | – | – | – | – | 7290 nM
